Measurements: patent US20260077170A1, “MICRONEEDLE DRUG DELIVERY APPARATUS AND PREPARATION METHOD THEREOF” (TSINGHUA UNIVERSITY, priority 2023, published 2026)

Columns and labels:
blood glucose = assay: Hypoglycemic effect of insulin-loaded microneedle drug delivery apparatus in minipigs; assay type: in vivo, experimental minipigs; conditions: delivered into duodenum by gastroscope, real-time blood glucose over 4 hours
Description: Considering the similarities between pigs and humans in the structure of the digestive system and physiological functions, experimental minipigs were used as the animal model for functional verification of the apparatus in this example. To prevent the pigs' chewing behavior from damaging the microneedle drug delivery apparatus and to take the individual variations in gastric emptying time into account, in this example, after anesthetizing the pigs, the microneedle drug delivery apparatus prepared in Example 2 was delivered into the pigs' duodenum using a gastroscope, and this moment was defined as time zero, the beginning of monitoring of the drug concentration in serum and the drug delivery effect. Central venous blood samples were collected every 20 minutes for a continuous time period of 4 hours. Real-time blood glucose was measured using a portable blood glucose meter, and the results were illustrated in FIG. 13 and FIG. 14.

[1] = Bioavailability of insulin from serum pharmacokinetic curve (human insulin ELISA); assay type: in vivo, experimental minipigs; conditions: minipigs, (AUC/dose) relative to subcutaneous injection group, serum insulin over 4 hours
Description: Considering the similarities between pigs and humans in the structure of the digestive system and physiological functions, experimental minipigs were used as the animal model for functional verification of the apparatus in this example. To prevent the pigs' chewing behavior from damaging the microneedle drug delivery apparatus and to take the individual variations in gastric emptying time into account, in this example, after anesthetizing the pigs, the microneedle drug delivery apparatus prepared in Example 2 was delivered into the pigs' duodenum using a gastroscope, and this moment was defined as time zero, the beginning of monitoring of the drug concentration in serum and the drug delivery effect. Central venous blood samples were collected every 20 minutes for a continuous time period of 4 hours. Excess blood was placed in a coagulation tube, left to stand for approximately 40 minutes, and then centrifuged to separate the serum. […] Calculating the area under this curve (AUC) can be used to compare the bioavailability of different drug delivery methods. […] The bioavailability was calculated as the ratio of the area under the pharmacokinetic curve (AUC)/administered dose of the test group to the corresponding value of the subcutaneous injection group, for evaluating the efficiency of a drug delivery method. […]

With human recombinant insulin as the substance, how does the hypoglycemic effect (blood glucose) read?
Its hypoglycemic effect is “poor hypoglycemic effect”.

And the bioavailability [1]?
The bioavailability was 0.6%.
